Assay results taken from patent US8420630B2 (Boehringer Ingelheim Pharma GmbH & Co. KG, priority 2001, dated 2013).

target: T1, CDK1/cyclinB1 (Homo sapiens, UniProt P06493); test: Cyclin B1-CDK1 kinase inhibition test; format: biochemical; details: not given
T1 construct: made in house; host or cells: High Five insect cells (Trichoplusia ni), baculovirus coinfection
How it was run: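 Baculovirus-expressed CDK1/cyclin B1 phosphorylated histone H1 with ATP mix containing 0.045 mM ATP plus ^33P-ATP for 30 min at 30 °C. Protein was precipitated with TCA and filter-bound radioactivity read by scintillation counting. Olomoucin at 30 and 300 μM final served as internal control.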

T1 sequence (P06493 whole entry): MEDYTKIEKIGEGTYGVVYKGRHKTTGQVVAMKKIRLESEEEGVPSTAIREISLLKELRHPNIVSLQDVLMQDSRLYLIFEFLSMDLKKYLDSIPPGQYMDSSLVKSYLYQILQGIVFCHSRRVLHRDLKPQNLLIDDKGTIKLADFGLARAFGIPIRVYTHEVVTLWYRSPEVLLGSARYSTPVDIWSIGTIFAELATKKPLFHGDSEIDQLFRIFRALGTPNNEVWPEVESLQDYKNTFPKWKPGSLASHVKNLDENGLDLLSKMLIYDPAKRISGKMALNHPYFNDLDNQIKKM
T1 sequence (P14635 whole entry partner): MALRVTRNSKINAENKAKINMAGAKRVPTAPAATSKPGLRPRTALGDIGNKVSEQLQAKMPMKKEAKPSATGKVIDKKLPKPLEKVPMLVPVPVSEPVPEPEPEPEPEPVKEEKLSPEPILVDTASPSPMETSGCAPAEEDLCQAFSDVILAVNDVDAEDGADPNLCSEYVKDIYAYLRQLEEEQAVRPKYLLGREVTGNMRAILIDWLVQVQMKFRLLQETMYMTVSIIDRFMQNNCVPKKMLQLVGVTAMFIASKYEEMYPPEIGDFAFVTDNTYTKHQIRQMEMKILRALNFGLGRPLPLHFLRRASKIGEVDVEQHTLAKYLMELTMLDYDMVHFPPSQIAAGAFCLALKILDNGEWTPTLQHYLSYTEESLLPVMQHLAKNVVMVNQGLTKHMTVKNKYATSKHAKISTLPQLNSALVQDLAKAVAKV

Compound | IC50 [nM]
CN1CCC(CNc2nc(Nc3ccc(Cl)c(Cl)c3)ncc2C(F)(F)F)CC1 [Example 1(030)] | < 100

same assay, conditions: CDK1 tests (Example 13); recombinant cyclin B1/CDK1, substrate histone H1; read-out: CDK1/cyclinB1 IC50 value

IC50 [nM] | Compound
< 100 | Nc1c(Cl)cc(Nc2ncc([N+](=O)[O-])c(N3CCc4[nH]cnc4C3)n2)cc1Cl [Example 1(113), 2-(4-amino-3,5-dichlorophenylamino)-4-(1,4,6,7-tetrahydro-imidazo[4,5-c]pyridin-5-yl)-5-nitro-pyrimidine]
< 100 | COCC(=O)NCCCNc1nc(Nc2ccc3cnn(C)c3c2)ncc1C(F)(F)F [Example 7(013), 2-methoxy-N-{3-[2-(1-methyl-1H-indazol-6-ylamino)-5-trifluoromethyl-pyrimidin-4-ylamino]-propyl}-acetamide]
< 100 | CC(=O)NCCNc1nc(Nc2ccc(N)cc2)ncc1C(F)(F)F [Example 2(004), N-{2-[2-(4-amino-phenylamino)-5-trifluoromethyl-pyrimidin-4-ylamino]-ethyl}-acetamide]
< 100 | NCCCCCNc1nc(Nc2ccc(Cl)cc2)ncc1C(F)(F)F [Example 1(079), 2-(4-chloro-phenylamino)-4-(5-amino-pentyl-1-amino)-5-trifluoromethyl-pyrimidine]
< 100 | Cc1cnc(Nc2ccc3cn[nH]c3c2)nc1NCCCN1CCCC1=O [Example 2(075), 1-{3-[2-(1H-indazol-6-ylamino)-5-methyl-pyrimidin-4-ylamino]-propyl}-pyrrolidin-2-one]
< 100 | CC(=O)NCCNc1nc(Nc2ccc(S(N)(=O)=O)cc2)ncc1C(F)(F)F [Example 2(008), 2-(4-aminosulphonyl-phenylamino)-4-(2-acetylamino-ethylamino)-5-trifluoromethyl-pyrimidine]
< 100 | NCCCOCCCNc1nc(Nc2ccc(Cl)c(Cl)c2)ncc1C(F)(F)F [Example 1(073)]
< 100 | CC(=O)NCCCNc1nc(Nc2ccc(Cl)c(Cl)c2)ncc1C(F)(F)F [Example 7(010), N-(3-[2-(3,4-dichloro-phenylamino)-5-trifluoromethyl-pyrimidin-4-ylamino]-propyl)-acetamide]
< 100 | Cn1ncc2ccc(Nc3ncc(C(F)(F)F)c(NCCCNS(=O)(=O)c4ccc(F)cc4)n3)cc21 [Example 7(012), 4-fluoro-N-{3-[2-(1-methyl-1H-indazol-6-ylamino)-5-trifluoromethyl-pyrimidin-4-ylamino]-propyl}-benzensulphonamide]
< 100 | CCN(CC)C(=O)NCCCNc1nc(Nc2ccc3cnn(C)c3c2)ncc1C(F)(F)F [Example 7(032), 1,1-diethyl-3-{3-[2-(1-methyl-1H-indazol-6-ylamino)-5-trifluoromethyl-pyrimidin-4-ylamino]-propyl}-urea]
< 100 | CC(CC(=O)O)Nc1nc(Nc2ccc(Cl)c(Cl)c2)ncc1C(F)(F)F (stereo not shown) [Example 1(388), 2-(3,4-dichlorophenylamino)-4-(1-carboxy-2-propylamino)-5-trifluoromethyl-pyrimidine]
< 100 | NC1CCC(Nc2nc(Nc3ccc(Cl)c(Cl)c3)ncc2C(F)(F)F)CC1 (stereo not shown) [Example 1(109), 2-(3,4-dichlorophenylamino)-4-(4-amino-cyclohexylamino)-5-trifluoromethyl-pyrimidine]
< 100 | FC(F)(F)c1cnc(Nc2cccc(Br)c2)nc1N1CCc2[nH]cnc2C1 [Example 1(038), 2-(3-bromo-phenylamino)-4-(1,4,6,7-tetrahydro-imidazo[4,5-c]pyridin-5-yl)-5-trifluoromethyl-pyrimidine]
< 100 | O=C1CCCN1CCCNc1nc(Nc2cccc(Cl)c2)ncc1C(F)(F)F [Example 1(067), 2-(3-chloro-phenylamino)-4-(3-(2-oxo-pyrrolidin-1-yl)-propyl-1-amino)-5-trifluoromethyl-pyrimidine]
< 100 | COCCNc1nc(Nc2ccc(Cl)c(Cl)c2)ncc1C(F)(F)F [Example 1(093), 2-(3,4-dichloro-phenylamino)-4-(2-methoxy-1-ethylamino)-5-trifluoromethyl-pyrimidine]
< 100 | O=C1CCCN1CCCNc1nc(Nc2ccc3cn[nH]c3c2)ncc1Cl [Example 2(048), 1-{3-[5-chloro-2-(1H-indazol-6-ylamino)-pyrimidin-4-ylamino]-propyl}-pyrrolidin-2-on]
< 100 | O=[N+]([O-])c1cnc(Nc2cccc(Br)c2)nc1N1CCc2[nH]cnc2C1 [Example 1(119), 2-(3-bromophenylamino)-4-(1,4,6,7-tetrahydro-imidazo[4,5-c]pyridin-5-yl)-5-nitro-pyrimidine]
< 100 | O=S(=O)(c1ccc(Nc2ncc(C(F)(F)F)c(N3CCc4nc[nH]c4C3)n2)cc1)N1CCOCC1 [Example 1(695), [4-(Morpholin-4-sulphonyl)-phenyl]-[4-(3,4,6,7-tetrahydro-imidazo[4,5-5]pyridin-5-yl)-5-trifluoromethyl-pyrimidin-2-yl]-amine]
< 100 | CC(=O)NCCNc1nc(Nc2ccc3[nH]cnc3c2)ncc1C(F)(F)F [Example 2(043), N-{2-[2-(1H-Benzimidazol-5-ylamino)-5-trifluoromethyl-pyrimidin-4-ylamino]-ethyl}-acetamide]
< 100 | NC1CCC(Nc2nc(Nc3ccc(C(=O)O)cc3)ncc2C(F)(F)F)CC1 (stereo not shown) [Example 1(111), 2-(4-carboxyphenylamino)-4-(4-amino-cyclohexylamino)-5-trifluoromethyl-pyrimidine]
< 100 | CC(=O)NCCNc1nc(Nc2ccc(NS(=O)(=O)c3ccccc3)cc2)ncc1C(F)(F)F [Example 10(016), N-(2-[2-(4-phenylsulphonylamido-phenylamino)-5-trifluoromethyl-pyrimidin-4-ylamino]-ethyl)-acetamide]
< 100 | CC(=O)NCCNc1nc(Nc2ccc(S(=O)(=O)C(C)C)cc2)ncc1C(F)(F)F [Example 1(692), N-(2-{2-[4-(propane-2-sulphonyl)-phenylamino]-5-trifluoromethyl-pyrimidin-4-ylamino}-ethyl)-acetamide]
< 100 | NCC1CCC(CNc2nc(Nc3cccc(Br)c3)ncc2C(F)(F)F)CC1 (stereo not shown) [Example 1(088), 2-(3-bromo-phenylamino)-4-(4-aminomethyl-cyclohexylmethylamino)-5-trifluoromethyl-pyrimidine]
< 100 | CC(=O)NCCNc1nc(Nc2ccc3cn(C)nc3c2)ncc1C(F)(F)F [Example 1(656), N-{2-[2-(2-methyl-2H-indazol-6-ylamino)-5-trifluoromethyl-pyrimidin-4-ylamino]-ethyl}-acetamide]
< 100 | FC(F)(F)c1cnc(Nc2ccccc2)nc1N1CCc2[nH]cnc2C1 [Example 1(118), 2-phenylamino-4-(1,4,6,7-tetrahydro-imidazo[4,5-c]pyridin-5-yl)-5-trifluoromethyl-pyrimidine]
< 100 | O=C1CCCN1CCCNc1nc(Nc2ccc(Cl)c(Cl)c2)ncc1Br [Example 1(661), 1-{3-[5-Bromo-2-(3,4-dichloro-phenylamino)-pyrimidin-4-ylamino]-propyl}-pyrrolidin-2-one]
< 100 | Brc1cnc(Nc2ccc3cn[nH]c3c2)nc1N1CCc2[nH]cnc2C1 [Example 2(142), [5-Bromo-4-(1,4,6,7-tetrahydro-imidazo[4,5-c]pyridin-5-yl)-pyrimidin-2-yl]-(1H-indazol-6-yl)-amine]
